Laboratory results taken from patent publication US20170050957A1, “4-AMINO-6-(HETEROCYCLIC)PICOLINATES AND 6-AMINO-2-(HETEROCYCLIC)PYRIMIDINE-4-CARBOXYLATES AND THEIR USE AS HERBICIDES” (Dow AgroSciences LLC, priority 2013, published 2017).
Where two headings read alike, the source gives them in different places.

Tests used:
[1] = test system: Key Broadleaf Weed and Crop Species; test: Post-emergent Test II herbicidal activity (Table 15); format: in vivo; settings: post-emergence, 336 h, 14 d; for pest or weed control at 35 g/ha: 35 g ai/ha; for pest or weed control at 70 g/ha: 70 g ai/ha; for pest or weed control at 140 g/ha: 140 g ai/ha
How it was run: (§1)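 Visual injury rating (0 = none, 100 = complete kill) taken 14 d after treatment, relative to untreated plants. Compounds in acetone/DMSO with crop oil concentrate and Triton X-155 were track-sprayed at 187 L/ha onto seedlings at the first-second true leaf stage.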

[2] = test system: Key Grass and Sedge Weeds as well as Grass Crops; test: Post-emergent Test II herbicidal activity (Table 16); format: in vivo; settings: post-emergence, 336 h, 14 days after application; for pest or weed control at 35 g/ha: 35 g ai/ha; for pest or weed control at 70 g/ha: 70 g ai/ha; for pest or weed control at 140 g/ha: 140 g ai/ha
How it was run: as §1

[3] = Abutilon theophrasti, velvetleaf (Abutilon theophrasti), read-out: Visual Growth Reduction (%) 14 Days After Application, ABUTH
[4] = Amaranthus retroflexus, redroot pigweed (Amaranthus retroflexus), read-out: Visual Growth Reduction (%) 14 Days After Application, AMARE
[5] = Brassica napus, oilseed rape, canola (Brassica napus), read-out: Visual Growth Reduction (%) 14 Days After Application, BRSNN
[6] = Chenopodium album, lambsquarters (Chenopodium album), read-out: Visual Growth Reduction (%) 14 Days After Application, CHEAL
[7] = Euphorbia heterophylla, wild poinsettia (Euphorbia heterophylla), read-out: Visual Growth Reduction (%) 14 Days After Application, EPHHL
[8] = Helianthus annuus, sunflower (Helianthus annuus), read-out: Visual Growth Reduction (%) 14 Days After Application, HELAN
[9] = Cyperus esculentus, yellow nutsedge (Cyperus esculentus), read-out: Visual Growth Reduction (%) 14 Days After Application CYPES
[10] = Echinochloa crus-galli, barnyardgrass (Echinochloa crus-galli), read-out: Visual Growth Reduction (%) 14 Days After Application ECHCG
[11] = Oryza sativa, rice (Oryza sativa), read-out: Visual Growth Reduction (%) 14 Days After Application ORYSA
[12] = Triticum aestivum, wheat, spring (Triticum aestivum), read-out: Visual Growth Reduction (%) 14 Days After Application TRZAS
[13] = Zea mays, maize, corn (Zea mays), read-out: Visual Growth Reduction (%) 14 Days After Application ZEAMX

COC(=O)c1nc(-c2ccc3ncn(C)c3c2)c(F)c(N)c1Cl [Compound 7.02]
218 to 220 °C: melting point
0 to 29%: pest or weed control at 35 g/ha [1, 3] | pest or weed control at 70 g/ha [1, 3] | pest or weed control at 140 g/ha [1, 3] | pest or weed control at 35 g/ha [1, 4] | pest or weed control at 70 g/ha [1, 4] | pest or weed control at 140 g/ha [1, 4] | pest or weed control at 35 g/ha [1, 5] | pest or weed control at 70 g/ha [1, 5] | pest or weed control at 140 g/ha [1, 5] | pest or weed control at 35 g/ha [1, 6] | pest or weed control at 35 g/ha [1, 7] | pest or weed control at 70 g/ha [1, 7] | pest or weed control at 140 g/ha [1, 7] | pest or weed control at 35 g/ha [1, 8] | pest or weed control at 70 g/ha [1, 8] | pest or weed control at 140 g/ha [1, 8] | pest or weed control at 35 g/ha [2, 9] | pest or weed control at 70 g/ha [2, 9] | pest or weed control at 140 g/ha [2, 9] | pest or weed control at 35 g/ha [2, 10] | pest or weed control at 70 g/ha [2, 10] | pest or weed control at 140 g/ha [2, 10] | pest or weed control at 35 g/ha [2, 11] | pest or weed control at 70 g/ha [2, 11] | pest or weed control at 140 g/ha [2, 11] | pest or weed control at 35 g/ha [2, 12] | pest or weed control at 70 g/ha [2, 12] | pest or weed control at 140 g/ha [2, 12] | pest or weed control at 35 g/ha [2, 13] | pest or weed control at 70 g/ha [2, 13] | pest or weed control at 140 g/ha [2, 13]
75 to 84%: pest or weed control at 70 g/ha [1, 6]
95 to 100%: pest or weed control at 140 g/ha [1, 6]
